Counter-ions that a name gives are not always drawn. Like-named read-outs stand apart in the source and are kept apart here.
How the values were obtained:
[1] = test system: Prot. mirabilis 2; experiment: MIC, Agar (Mueller Hinton) Dilution Method; format: cell-based; settings: Proteus mirabilis
Method in brief: (§1)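 An agar-based dilution method with Mueller Hinton medium gives in vitro MIC values (micrograms/ml) for several bacterial species of both Gram types.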

[2] = test system: Str. pneumoniae 6302; experiment: MIC, Agar (Mueller Hinton) Dilution Method; format: cell-based; settings: Streptococcus pneumoniae, Gram Positive and Others
Method in brief: as §1

[3] = Prot. mirabilis 2, Gram Negative, read-out: MIC

SMILES: O=C(Cc1cccs1)N[C@@H]1C(=O)N2C(C(=O)O)=C(COC(=O)N3CCN(c4c(F)cc5c(=O)c(C(=O)O)cn(C6CC6)c5c4F)CC3)CS[C@H]12 [Formula Ia, [6R,7R]-3-[[[[4-(3-Carboxy-1-cyclopropyl-6,8-difluoro-1,4-dihydro-4-oxo-7-quinolinyl)-1-piperazinyl]carbonyl]-oxy]-methyl]-8-oxo-7-[(2-thienylacetyl)amino]-5-thia-1-azabicyclo-[4.2.0]oct-2-ene-2-carboxylic acid]
- MIC [1, 3]: 0.25 µg/mL

SMILES: N#CCC(=O)N[C@@H]1C(=O)N2C(C(=O)O)=C(COC(=O)NC3CCN(c4c(F)cc5c(=O)c(C(=O)O)cn(C6CC6)c5c4F)C3)CS[C@H]12 (stereo partly drawn) [Formula Ib, [6R,7R]-3-[[[[[1-(3-Carboxy-1-cyclopropyl-6,8-difluoro-1,4-dihydro-4-oxo-7-quinolinyl-3-[R,S]-pyrrolidinyl]-amino]carbonyl]oxy]methyl]-7-[(cyanoacetyl)amino]-8-oxo-5-thia-1-azabicyclo[4.2.0]oct-2-ene-2-carboxyiic acid monosodium salt]
- MIC [1, 3]: 0.25 µg/mL

SMILES: N#CCC(=O)N[C@@H]1C(=O)N2C(C(=O)O)=C(COC(=O)N[C@H]3CCN(c4c(F)cc5c(=O)c(C(=O)O)cn(C6CC6)c5c4F)C3)CS[C@H]12 [Formula Iba, [6R-[3(S^*), 6 alpha, 7 beta]]-3-[[[[[1-(3-Carboxy-1-cyclopropyl-6,8-difluoro-1,4-dihydro-4-oxo-7-quinolinyl-3-pyrrolidinyl]-amino]carbonyl]oxy]methyl]-7-[(cyanoacetyl)amino]-8-oxo-5-thia 1-azabicyclo[4.2.0]oct-2-ene-2-carboxylic acid monosodium salt]
- MIC [2]: 0.0625 µg/mL
- MIC [1, 3]: 0.0625 µg/mL

SMILES: N#CCC(=O)N[C@@H]1C(=O)N2C(C(=O)O)=C(COC(=O)N[C@@H]3CCN(c4c(F)cc5c(=O)c(C(=O)O)cn(C6CC6)c5c4F)C3)CS[C@H]12 [Formula Ibb, [6R-[3(R^*), 6 alpha, 7 beta]]-3-[[[[[1-(3-Carboxy-1-cyclopropyl-6,8-difluoro-1,4-dihydro-4-oxo-7-quinolinyl-3-pyrrolidinyi]amino]carbonyl]oxy]methyL]-7-[(cyanoacetyl)amino]-8-oxo-5-thia-1-azabicyclo[4.2.0]oct-2-ene-2-carboxylic acid monosodium salt]
- MIC [2]: 0.0625 µg/mL
- MIC [1]; 2: 0.125 µg/mL

Source: patent publication EP0597303A2, “Cephalosporin derivatives” (priority 1992, dated 1994)
